Here are results for 32 molecules from patent US9738648B2, “Pyridines, pyrimidines, and pyrazines, as BTK inhibitors and uses thereof” (Merck Patent GmbH, priority 2013, dated 2017).

Molecules are shown by their SMILES.

This assay deals with T1, full-length human BTK (Homo sapiens, UniProt Q06187).
T1 construct: 2.5× stocks of full-length human BTK (08-080) from CarnaBio USA, Inc; purchased CarnaBio USA, Inc., Natick, Mass; 08-080
T1 sequence (Q06187 whole entry): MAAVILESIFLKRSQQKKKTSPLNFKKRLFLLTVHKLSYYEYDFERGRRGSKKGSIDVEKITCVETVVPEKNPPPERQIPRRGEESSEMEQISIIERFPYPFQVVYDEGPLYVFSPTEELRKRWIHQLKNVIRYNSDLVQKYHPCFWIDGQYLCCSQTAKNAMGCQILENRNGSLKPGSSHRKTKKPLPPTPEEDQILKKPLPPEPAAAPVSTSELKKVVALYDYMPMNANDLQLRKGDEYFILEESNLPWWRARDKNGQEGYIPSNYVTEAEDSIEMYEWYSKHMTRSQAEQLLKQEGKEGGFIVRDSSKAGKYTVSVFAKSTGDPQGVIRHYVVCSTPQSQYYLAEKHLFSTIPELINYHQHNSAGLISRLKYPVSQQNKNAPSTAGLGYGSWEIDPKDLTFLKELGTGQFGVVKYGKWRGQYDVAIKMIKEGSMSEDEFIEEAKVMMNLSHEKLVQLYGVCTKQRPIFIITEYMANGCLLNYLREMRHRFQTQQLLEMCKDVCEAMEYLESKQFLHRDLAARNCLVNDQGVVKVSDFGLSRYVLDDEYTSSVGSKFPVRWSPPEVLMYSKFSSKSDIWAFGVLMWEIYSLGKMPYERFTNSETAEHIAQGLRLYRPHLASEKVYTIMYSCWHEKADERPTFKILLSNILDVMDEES
The experiment in a line: BTK IC50 Enzyme Assay (Assay A), microfluidic off-chip mobility shift kinase assay. It counts as biochemical. Conditions: kinKDR peptide substrate, 90 min at 27° C. The procedure:
BTK IC50 Enzyme Assay (Assay A)
The following describes a microfluidic, off-chip mobility shift kinase assay used to measure inherent potency of compounds against BTK enzyme.
2.5× stocks of full-length human BTK (08-080) from CarnaBio USA, Inc., Natick, Mass., 1.6×ATP and appropriate kinKDR peptide substrate (FITC-AHA-EEPLYWSFPAKKK10 NH2) were prepared in kinase reaction buffer consisting of 25 mM MgCl2, 0.015% Brij-35 (30%), 100 mM Hepes, pH 7.5, and 10 mM DTT.
5 uL of enzyme buffer and 7.5 uL of ATP/kinKDR peptide substrate mix were added to Matrix (#115304) 384-well, sterile, polypropylene plates (Thermo Fisher Scientific, 15 Hudson, N.H.) with 125 nL of serially diluted compounds prepared in 100% DMSO, and incubated for 90 min. at 27° C. Following the incubation period, reactions were stopped by adding 60 uL stop buffer consisting of 100 mM Hepes, pH 7.5, 0.015% Brij-35 (30%), 0.277% Coating Reagent #3 (Caliper Life Sciences, Mountain View, Calif.), 5% DMSO. Stopped reactions were monitored at −2 PSI, −3000 V/−700 V in a LabChip 3000 plate 20 reader from Caliper Life Sciences, a PerkinElmer Company (Hopkinton, Mass.), and the activity was measured by off-chip mobility shift assay measuring the charge/mass difference between substrate and product resulting from peptide phosphorilation. IC50 and efficacy were determined by plotting log [Inhibitor] vs. % Activity in GeneData Screener (Basel, Switzerland).
As to `N#CN1CCC(Cn2ccc3ncnc(Oc4ccc(Oc5ccccc5)cc4)c32)C1` (centres unmarked) [Compound 58, 3-[[4-(4-phenoxyphenoxy)-5H-pyrrolo[3,2-d]pyrimidin-5-yl]methyl]pyrrolidine-1-carbonitrile], the IC50 was in the range of 1 to 5 µM.

For the molecule `CN(C)C/C=C/C(=O)N[C@H]1C[C@@H](n2ncc3ncnc(Oc4ccc(Oc5ccccc5)cc4)c32)C1` [Compound 36, (E)-4-(dimethylamino)-N-((1s,3s)-3-(7-(4-phenoxyphenoxy)-1H-pyrazolo[4,3-d]pyrimidin-1-yl)cyclobutyl)but-2-enamide], the IC50 fell in the range of 0.1 to 1 µM. On to `C=CC(=O)N1CCC(Cn2ccc3ncnc(Oc4ccc(Oc5ccccc5)cc4)c32)CC1` [Compound 37, 1-(4-((4-(4-phenoxyphenoxy)-5H-pyrrolo[3,2-d]pyrimidin-5-yl)methyl)piperidin-1-yl)prop-2-en-1-one], for which the IC50 was in the range of 0.1 to 1 µM.

Regarding `C=CC(=O)N[C@H]1C[C@H](n2ncc3ncnc(Oc4ccc(Oc5ccccc5)cc4)c32)C1` [Compound 21, N-((1r,3r)-3-(7-(4-phenoxyphenoxy)-1H-pyrazolo[4,3-d]pyrimidin-1-yl)cyclobutyl)acrylamide], the IC50 was < 0.1 µM. As for `C=CC(=O)N[C@H]1CC[C@H](n2ccc3ncnc(Oc4ccc(Oc5ccccc5)cc4)c32)CC1` [Compound 39, N-(trans-4-(4-(4-phenoxyphenoxy)-5H-pyrrolo[3,2-d]pyrimidin-5-yl)cyclohexyl)acrylamide], the IC50 lay within 0.1 to 1 µM. The value for `C=CC(=O)N1CCCC(Cn2ccc3ncnc(Oc4ccc(Oc5ccccc5)cc4)c32)C1` (centres unmarked) [Compound 15, 1-(3-((4-(4-phenoxyphenoxy)-5H-pyrrolo[3,2-d]pyrimidin-5-yl)methyl)piperidin-1-yl)prop-2-en-1-one] was < 0.1 µM. To `C=CC(=O)N1CC(n2ccc3ncnc(Oc4cnn(Cc5ccccc5)c4)c32)C1` [Compound 43, 1-(3-(4-((1-benzyl-1H-pyrazol-4-yl)oxy)-5H-pyrrolo[3,2-d]pyrimidin-5-yl)azetidin-1-yl)prop-2-en-1-one] belongs 1 to 5 µM; to `C=CC(=O)N1CC[C@@H](n2ccc3ncnc(Oc4ccc(Oc5ccccc5)cc4)c32)C1` [Compound 34, (R)-1-(3-(4-(4-phenoxyphenoxy)-5H-pyrrolo[3,2-d]pyrimidin-5-yl)pyrrolidin-1-yl)prop-2-en-1-one], 0.1 to 1 µM; to `C=CC(=O)NCCn1ccc2ncnc(Oc3ccc(Oc4ccccc4)cc3)c21` [Compound 42, N-(2-(4-(4-phenoxyphenoxy)-5H-pyrrolo[3,2-d]pyrimidin-5-yl)ethyl)acrylamide], 1 to 5 µM.

For the molecule `CN(C)C/C=C/C(=O)N1CC[C@H](n2ccc3ncnc(Oc4ccc(Oc5ccccc5)cc4)c32)C1` [Compound 18, (S,E)-4-(dimethylamino)-1-(3-(4-(4-phenoxyphenoxy)-5H-pyrrolo[3,2-d]pyrimidin-5-yl)pyrrolidin-1-yl)but-2-en-1-one], the 50% inhibitory concentration (IC50) was < 0.1 µM. To `C=CC(=O)N1CCCC(Cn2ccc3ncnc(-c4cccc(Oc5ccccc5)c4)c32)C1` (centres unmarked) [Compound 44, 1-(3-((4-(3-phenoxyphenyl)-5H-pyrrolo[3,2-d]pyrimidin-5-yl)methyl)piperidin-1-yl)prop-2-en-1-one] belongs 1 to 5 µM. The value for `NCCOCCOCCOCCOCCC(=O)NCCN1CCN(C/C=C/C(=O)N2CCC(n3ccc4ncnc(Oc5ccc(Oc6ccccc6)cc5)c43)CC2)CC1` [Compound 73, (E)-1-amino-N-(2-(4-(4-oxo-4-(4-(4-(4-phenoxyphenoxy)-5H-pyrrolo[3,2-d]pyrimidin-5-yl)piperidin-1-yl)but-2-en-1-yl)piperazin-1-yl)ethyl)-3,6,9,12-tetraoxapentadecan-15-amide] was < 0.1 µM. Regarding `C=CC(=O)N1CCC(Cn2ccc3ncnc(-c4ccc(Oc5ccccc5)cc4)c32)CC1` [Compound 47, 1-(4-((4-(4-phenoxyphenyl)-5H-pyrrolo[3,2-d]pyrimidin-5-yl)methyl)piperidin-1-yl)prop-2-en-1-one], the IC50 was > 5 µM.

With `C=CC(=O)N1CC[C@@H]1Cn1ccc2ncnc(Oc3ccc(Oc4ccccc4)cc3)c21` [Compound 9, (R)-1-(2-((4-(4-phenoxyphenoxy)-5H-pyrrolo[3,2-d]pyrimidin-5-yl)methyl)azetidin-1-yl)prop-2-en-1-one], the IC50 was < 0.1 µM. The value for `N#CN1CC2(CC(n3ccc4ncnc(Oc5ccc(Oc6ccccc6)cc5)c43)C2)C1` [Compound 69, 6-[4-(4-phenoxyphenoxy)-5H-pyrrolo[3,2-d]pyrimidin-5-yl]-2-azaspiro[3.3]heptane-2-carbonitrile] was 1 to 5 µM; that for `CN(C#N)[C@H]1C[C@H](n2ccc3ncnc(Oc4ccc(Oc5ccccc5)cc4)c32)C1` [Compound 67, (1R,3R)—N-cyano-N-methyl-3-[4-(4-phenoxyphenoxy)-5H-pyrrolo[3,2-d]pyrimidin-5-yl]cyclobutan-1-amine] was 0.1 to 1 µM; that for `C=C(C)C(=O)N1CC(n2ccc3ncnc(Oc4ccc(Oc5ccccc5)cc4)c32)C1` [Compound 51, 2-methyl-1-(3-(4-(4-phenoxyphenoxy)-5H-pyrrolo[3,2-d]pyrimidin-5-yl)azetidin-1-yl)prop-2-en-1-one] was > 5 µM. The value for `C=CC(=O)N1CC(n2ccc3ncnc(Oc4ccc(Nc5ccccc5)cc4)c32)C1` [Compound 22, 1-(3-(4-(4-(phenylamino)phenoxy)-5H-pyrrolo[3,2-d]pyrimidin-5-yl)azetidin-1-yl)prop-2-en-1-one] was < 0.1 µM. To `N#CN1CCCCC1Cn1ccc2ncnc(Oc3ccc(Oc4ccccc4)cc3)c21` (centres unmarked) [Compound 62, 2-[[4-(4-phenoxyphenoxy)-5H-pyrrolo[3,2-d]pyrimidin-5-yl]methyl]piperidine-1-carbonitrile] belongs 1 to 5 µM.

On to `N#CN1CCCC1Cn1ccc2ncnc(Oc3ccc(Oc4ccccc4)cc3)c21` (centres unmarked) [Compound 61, 2-[[4-(4-phenoxyphenoxy)-5H-pyrrolo[3,2-d]pyrimidin-5-yl]methyl]pyrrolidine-1-carbonitrile], for which the IC50 was in the range of 1 to 5 µM. The value for `N#CN1CC[C@@H](n2ccc3ncnc(Oc4ccc(Oc5ccccc5)cc4)c32)C1` [Compound 71, (3R)-3-[4-(4-phenoxyphenoxy)-5H-pyrrolo[3,2-d]pyrimidin-5-yl]pyrrolidine-1-carbonitrile] was > 5 µM; that for `N#CN1CCC(Cn2ccc3ncnc(Oc4ccc(Oc5ccccc5)cc4)c32)CC1` [Compound 59, 4-[[4-(4-phenoxyphenoxy)-5H-pyrrolo[3,2-d]pyrimidin-5-yl]methyl]piperidine-1-carbonitrile] was > 5 µM. To `C=CC(=O)N1CC(Cn2ccc3ncnc(Oc4ccc(Oc5ccccc5)cc4)c32)C1` [Compound 20, 1-(3-((4-(4-phenoxyphenoxy)-5H-pyrrolo[3,2-d]pyrimidin-5-yl)methyl)azetidin-1-yl)prop-2-en-1-one] belongs < 0.1 µM. The value for `C/C=C/C(=O)N1CC(n2ccc3ncnc(Oc4ccc(Oc5ccccc5)cc4)c32)C1` [Compound 38, (E)-1-(3-(4-(4-phenoxyphenoxy)-5H-pyrrolo[3,2-d]pyrimidin-5-yl)azetidin-1-yl)but-2-en-1-one] was 0.1 to 1 µM; that for `C=CC(=O)N1CC(n2ccc3ncnc(Oc4ccc(Oc5ccc(F)cc5)cc4)c32)C1` [Compound 27, 1-(3-(4-(4-(4-fluorophenoxy)phenoxy)-5H-pyrrolo[3,2-d]pyrimidin-5-yl)azetidin-1-yl)prop-2-en-1-one] was < 0.1 µM; that for `C=CC(=O)N[C@H]1C[C@@H](n2ncc3ncnc(Oc4ccc(Oc5ccccc5)cc4)c32)C1` [Compound 11, N-((1s,3s)-3-(7-(4-phenoxyphenoxy)-1H-pyrazolo[4,3-d]pyrimidin-1-yl)cyclobutyl)acrylamide] was < 0.1 µM. In the case of `N#CN1CC(Cn2ccc3ncnc(Oc4ccc(Oc5ccccc5)cc4)c32)C1` [Compound 66, 3-[[4-(4-phenoxyphenoxy)-5H-pyrrolo[3,2-d]pyrimidin-5-yl]methyl]azetidine-1-carbonitrile], the IC50 was in the range of 1 to 5 µM. The value for `N#CN1CC[C@H](n2ccc3ncnc(Oc4ccc(Oc5ccc(F)cc5F)cc4)c32)C1` [Compound 76] was 0.1 to 1 µM; that for `C=CC(=O)N1CCC(Cn2ccc3ncnc(-c4ccc(Oc5ccccc5)cc4)c32)C1` (centres unmarked) [Compound 46, 1-(3-((4-(4-phenoxyphenyl)-5H-pyrrolo[3,2-d]pyrimidin-5-yl)methyl)pyrrolidin-1-yl)prop-2-en-1-one] was 1 to 5 µM. The value for `CN(C)C/C=C/C(=O)N[C@H]1C[C@H](n2ncc3ncnc(Oc4ccc(Oc5ccccc5)cc4)c32)C1` [Compound 41, (E)-4-(dimethylamino)-N-((1r,3r)-3-(7-(4-phenoxyphenoxy)-1H-pyrazolo[4,3-d]pyrimidin-1-yl)cyclobutyl)but-2-enamide] was 0.1 to 1 µM; that for `C=CC(=O)N1CC(n2ccc3ncnc(Oc4ccc(OCc5ccccc5)cc4)c32)C1` [Compound 16, 1-(3-(4-(4-(benzyloxy)phenoxy)-5H-pyrrolo[3,2-d]pyrimidin-5-yl)azetidin-1-yl)prop-2-en-1-one] was < 0.1 µM; that for `N#CN1CC[C@@H](n2ccc3ncnc(Oc4ccc(Oc5ccc(F)cc5F)cc4)c32)C1` [Compound 75] was > 5 µM.

As a reminder, the IC50 is the point on the concentration scale where inhibition reaches its midpoint.
